Test results taken from patent US20020035061A1, “COMPOSITIONS AND METHODS FOR TREATING INFECTIONS USING CATIONIC PEPTIDES ALONE OR IN COMBINATION WITH ANTIBIOTICS” (priority 1996, published 2002).
Read-outs that look alike come from different tables or passages of the source.

How the values were obtained:
[1] = system: MSSA (Smith, ATCC # 19640); test: In vivo efficacy, MSSA infection; parameters: species or system S. aureus; settings: formulation D, 60 min post-infection, end of eight day observation
[2] = system: inherently resistant microorganisms; test: microbe, parasite or virus in culture; type: cell-based; settings: for FIC: peptide + Tobramycin
A. calcoaceticus = type: cell-based; settings: A. calcoaceticus AC002
E. cloacae = type: cell-based; settings: E. cloacae ECL007
[3] = system: microorganisms with acquired resistance; test: microbe, parasite or virus in culture; type: cell-based; settings: S. aureus; combination with Mupirocin; in µg/mL
[4] = system: vancomycin / teicoplanin resistant enterococci; test: microbe, parasite or virus in culture; type: cell-based; settings: for Peptide MIC Alone: Vancomycin section; for FIC: peptide + Vancomycin
S. aureus = type: cell-based; settings: for Peptide MIC values: agarose dilution
K. pneumoniae = type: cell-based; settings: K. pneumoniae KP002
E. faecalis = type: cell-based; settings: E. faecalis EFS002
S. epidermidis = type: cell-based; settings: S. epidermidis SE002
P. aeruginosa = type: cell-based; settings: for Peptide MIC values: agarose dilution
E. faecium = type: cell-based
H. influenzae = test: Agarose dilution assay (MIC); type: cell-based; settings: H. influenzae HIN002
E. coli = type: cell-based; settings: for Peptide MIC values: agarose dilution
S. pneumoniae = test: Agarose dilution assay (MIC); type: cell-based; settings: for Peptide MIC values: agarose dilution
S. marcescens = type: cell-based; settings: for Peptide MIC values: agarose dilution

ILKKFPFFPFRRK [MBI 11A1CN]
0.25: FIC ([4]; E. faecium EFM009)
4 µg/mL: Vancomycin MIC + Peptide ([4]; E. faecalis EFS003) | Vancomycin MIC + Peptide ([4]; E. faecalis EFS006) | Peptide MIC Alone ([4]; E. faecalis EFS014) | Vancomycin MIC + Peptide ([4]; E. faecium EFM007) | Vancomycin MIC + Peptide ([4]; E. faecium EFM009)
64 µg/mL: Peptide MIC Alone ([4]; E. faecium EFM007) | Peptide MIC Alone ([4]; E. faecium EFM009)
16 µg/mL: Peptide MIC Alone ([2]; S. haemolyticus, Tobramycin section) | MIC (A. calcoaceticus) | Peptide MIC + Vancomycin ([4]; E. faecium EFM004) | Peptide MIC + Vancomycin ([4]; E. faecium EFM007) | MIC (S. epidermidis) | Peptide MIC values (E. coli; E. coli ESS) | Peptide MIC values (E. coli; E. coli NCTC 10418)
128 µg/mL: Peptide MIC Alone ([4]; E. faecalis EFS006) | Peptide MIC Alone ([4]; E. faecalis EFS010) | Peptide MIC values (S. aureus; S. aureus SA206) | Peptide MIC values (E. faecium; agarose dilution) | Peptide MIC values (E. coli; E. coli ATCC 25922)
0.63: FIC ([4]; E. faecalis EFS003)
0.50: FIC ([2]; S. aureus) | FIC ([4]; E. faecalis EFS006) | FIC ([4]; E. faecium EFM004)
0.13: FIC ([4]; E. faecalis EFS010)
>128 µg/mL: MIC (E. cloacae) | Peptide MIC Alone ([4]; E. faecalis EFS003) | Peptide MIC values (S. aureus; S. aureus MRSA13) | MIC (K. pneumoniae) | MIC (P. aeruginosa; P. aeruginosa PA004) | Peptide MIC values (P. aeruginosa; P. aeruginosa ATCC 27853) | Peptide MIC values (P. aeruginosa; P. aeruginosa NCTC 10662) | MIC (H. influenzae) | MIC (S. pneumoniae; S. pneumoniae SBSPN2) | Peptide MIC values (S. pneumoniae; S. pneumoniae 406LE8) | Peptide MIC values (S. pneumoniae; S. pneumoniae 60120) | Peptide MIC values (S. pneumoniae; S. pneumoniae ATCC 49619) | MIC (S. marcescens; S. marcescens SBSM2) | Peptide MIC values (S. marcescens; S. marcescens SM76) | Peptide MIC values (S. marcescens; S. marcescens SM82)
0.125 µg/mL: Peptide MIC + Tobramycin ([2]; S. haemolyticus)
1 µg/mL: Vancomycin MIC + Peptide ([4]; E. faecalis EFS010) | Vancomycin MIC + Peptide ([4]; E. faecalis EFS014) | MIC (E. faecium; E. faecium EFM002)
2 µg/mL: Peptide MIC + Vancomycin ([4]; E. faecalis EFS014) | Peptide MIC values (S. aureus; S. aureus ATCC 29213)
0%: % Survival ([1]; 12 mg/kg ip) | % Survival ([1]; 18 mg/kg ip) | % Survival ([1]; 24 mg/kg ip)
32: Peptide MIC [3]
0.28: FIC ([4]; E. faecium EFM007)
0.5 µg/mL: Vancomycin MIC + Peptide ([4]; E. faecium EFM004)
0.51: FIC ([2]; S. haemolyticus) | FIC ([4]; E. faecalis EFS014)
32 µg/mL: Peptide MIC + Vancomycin ([4]; E. faecalis EFS003) | Peptide MIC Alone ([4]; E. faecium EFM004) | Peptide MIC values (S. aureus; S. aureus MRSA17) | MIC (E. faecalis) | MIC (E. coli; E. coli ECO002)
0.25 µg/mL: Peptide MIC + Vancomycin ([4]; E. faecalis EFS006)
8 µg/mL: Peptide MIC + Vancomycin ([4]; E. faecalis EFS010) | Peptide MIC + Vancomycin ([4]; E. faecium EFM009) | MIC (S. aureus; S. aureus SA005) | Peptide MIC values (S. aureus; S. aureus MRSA9)
